From patent US20120172359A1 (NOVARTIS AG, priority 2010, published 2012) come the findings set out here.

Structures are written as SMILES. Where a name gives a salt, the structure may show the parent alone.

The target in this experiment is Human BACE-1 (Homo sapiens, UniProt P56817). In words: Test 1: Inhibition of Human BACE-1. Particulars: Test 1; recombinant BACE-1 (extracellular domain), acetate buffer pH 4.5, 1 hour with test compound at room temperature, fluorescence-quenched peptide substrate; read-out: Bace IC50. It is filed as biochemical.
Sequence of Human BACE-1 (P56817 46-457 limits assumed): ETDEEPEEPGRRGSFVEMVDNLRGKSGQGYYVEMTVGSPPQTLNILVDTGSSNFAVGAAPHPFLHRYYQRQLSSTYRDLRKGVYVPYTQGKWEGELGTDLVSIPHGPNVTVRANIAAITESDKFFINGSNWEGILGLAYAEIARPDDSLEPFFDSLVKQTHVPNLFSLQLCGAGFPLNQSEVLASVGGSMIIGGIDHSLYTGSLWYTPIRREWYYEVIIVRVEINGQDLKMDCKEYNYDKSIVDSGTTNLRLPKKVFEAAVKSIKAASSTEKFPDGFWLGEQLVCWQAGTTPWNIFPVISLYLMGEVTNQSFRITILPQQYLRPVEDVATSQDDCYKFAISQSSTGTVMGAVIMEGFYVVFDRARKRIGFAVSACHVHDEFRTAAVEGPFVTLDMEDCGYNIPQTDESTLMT
As to `NC1=NC(c2cccc(NC(=O)c3ccc(O)nn3)c2)(C(F)F)COC1` (centres unmarked) [Example 103, 6-Hydroxy-pyridazine-3-carboxylic acid [3-(5-amino-3-difluoromethyl-3,6-dihydro-2H-[1,4]oxazin-3-yl)-phenyl]-amide hydrochloride], the IC50 came to 7800 nM. In the case of `CCc1nc(C(=O)Nc2cccc(C3(C(F)F)COCC(N)=N3)c2)co1` (centres unmarked) [Example 105, 2-Ethyl-oxazole-4-carboxylic acid [3-(5-amino-3-difluoromethyl-3,6-dihydro-2H-[1,4]oxazin-3-yl)-phenyl]-amide hydrochloride], the IC50 turned out to be 5200 nM. `Cc1nc(C(=O)Nc2cccc(C3(C(F)F)COCC(N)=N3)c2)c(C)o1` (centres unmarked) [Example 106, 2,5-Dimethyl-oxazole-4-carboxylic acid [3-(5-amino-3-difluoromethyl-3,6-dihydro-2H-[1,4]oxazin-3-yl)-phenyl]-amide hydrochloride]: the IC50 is 4000 nM. Take `COc1cc(Br)cnc1C(=O)Nc1cccc(C2(C(F)F)COCC(N)=N2)c1` (centres unmarked) [Example 107, 5-Bromo-3-methoxy-pyridine-2-carboxylic acid [3-(5-amino-3-difluoromethyl-3,6-dihydro-2H-[1,4]oxazin-3-yl)-phenyl]-amide hydrochloride]: the IC50 was 820 nM. As to `NC1=NC(c2cccc(NC(=O)c3ncc(Br)cc3O)c2)(C(F)F)COC1` (centres unmarked) [Example 108, 5-Bromo-3-hydroxy-pyridine-2-carboxylic acid [3-(5-amino-3-difluoromethyl-3,6-dihydro-2H-[1,4]oxazin-3-yl)-phenyl]-amide hydrochloride], the IC50 turned out to be 28 nM.

As for `COCCOc1cnc(C(=O)Nc2cccc(C3(C(F)F)COCC(N)=N3)c2)cn1` (centres unmarked) [Example 109, hydrochloride], the IC50 worked out at 1200 nM. For `NC1=NC(c2cccc(NC(=O)c3cnc(C(F)F)cn3)c2)(C(F)F)COC1` (centres unmarked) [Example 110, 5-Difluoromethyl-pyrazine-2-carboxylic acid [3-(5-amino-3-difluoromethyl-3,6-dihydro-2H-[1,4]oxazin-3-yl)-phenyl]-amide hydrochloride], the IC50 turned out to be 1900 nM. Turning to `NC1=N[C@@](c2cc(NC(=O)c3ncc(Cl)cc3Cl)ccc2F)(C(F)F)COC1` [Example 111, 3,5-Dichloro-pyridine-2-carboxylic acid [3-((R)-5-amino-3-difluoromethyl-3,6-dihydro-2H-[1,4]oxazin-3-yl)-4-fluoro-phenyl]-amide hydrochloride], the IC50 turned out to be 25 nM.

For the molecule `NC1=N[C@@](c2cc(NC(=O)c3ncc(F)cc3F)ccc2F)(C(F)F)COC1` [Example 113, 3,5-Difluoro-pyridine-2-carboxylic acid [3-((R)-5-amino-3-difluoromethyl-3,6-dihydro-2H-[1,4]oxazin-3-yl)-4-fluoro-phenyl]-amide hydrochloride], the IC50 is 120 nM. `Cc1c(C(=O)Nc2ccc(F)c([C@]3(C(F)F)COCC(N)=N3)c2)oc2ccc(Br)cc12` [Example 114, 5-Bromo-3-methyl-benzofuran-2-carboxylic acid [3-((R)-5-amino-3-difluoromethyl-3,6-dihydro-2H-[1,4]oxazin-3-yl)-4-fluoro-phenyl]-amide hydrochloride]: the IC50 is 6 nM. Consider `Cl.[2H]c1nc(C(=O)Nc2ccc(F)c([C@]3(C(F)F)COCC(N)=N3)c2)c(C([2H])([2H])[2H])c([2H])c1Cl` [Example 115, 5-Chloro-4,6-dideutero-3-trideuteromethyl-pyridine-2-carboxylic acid [3-((R)-5-amino-3-difluoromethyl-3,6-dihydro-2H-[1,4]oxazin-3-yl)-4-fluoro-phenyl]-amide hydrochloride], for which the IC50 was determined as 6 nM. On to `NC1=N[C@@](c2cc(NC(=O)c3ncc(Br)cc3Cl)ccc2F)(C(F)F)COC1` [Example 117, 5-Bromo-3-chloro-pyridine-2-carboxylic acid [3-((R)-5-amino-3-difluoromethyl-3,6-dihydro-2H-[1,4]oxazin-3-yl)-4-fluoro-phenyl]-amide hydrochloride], for which the IC50 is 18 nM. Under `NC1=N[C@@](c2cc(NC(=O)c3ccc(Br)cn3)ccc2F)(C(F)F)COC1` [Example 118, 5-Bromo-pyridine-2-carboxylic acid [3-((R)-5-amino-3-difluoromethyl-3,6-dihydro-2H-[1,4]oxazin-3-yl)-4-fluoro-phenyl]-amide hydrochloride] stands 14 nM; under `NC1=N[C@@](c2cc(NC(=O)c3ncc(Br)cc3O)ccc2F)(C(F)F)COC1` [Example 119, 5-Bromo-3-hydroxy-pyridine-2-carboxylic acid [3-((R)-5-amino-3-difluoromethyl-3,6-dihydro-2H-[1,4]oxazin-3-yl)-4-fluoro-phenyl]-amide hydrochloride], 10 nM; under `CCOc1ccc(C(=O)Nc2ccc(F)c([C@]3(C(F)F)COCC(N)=N3)c2)nc1` [Example 120, 5-Ethoxy-pyridine-2-carboxylic acid [3-((R)-5-amino-3-difluoromethyl-3,6-dihydro-2H-[1,4]oxazin-3-yl)-4-fluoro-phenyl]-amide], 180 nM. `NC1=N[C@@](c2cc(NC(=O)c3ncc(Br)cn3)ccc2F)(C(F)F)COC1` [Example 121, 5-Bromo-pyrimidine-2-carboxylic acid [3-((R)-5-amino-3-difluoromethyl-3,6-dihydro-2H-[1,4]oxazin-3-yl)-4-fluoro-phenyl]-amide hydrochloride]: the IC50 was 36 nM.

`NC1=N[C@@](c2cc(NC(=O)c3cnc(C(F)F)cn3)ccc2F)(C(F)F)COC1` [Example 122, 5-Difluoromethyl-pyrazine-2-carboxylic acid [3-((R)-5-amino-3-difluoromethyl-3,6-dihydro-2H-[1,4]oxazin-3-yl)-4-fluoro-phenyl]-amide hydrochloride]: the IC50 was 200 nM.

Consider `NC1=N[C@@](c2cc(NC(=O)c3cnc(OCC(F)F)cn3)ccc2F)(C(F)F)COC1` [Example 123, 5-(2,2-Difluoro-ethoxy)-pyrazine-2-carboxylic acid [3-((R)-5-amino-3-difluoromethyl-3,6-dihydro-2H-[1,4]oxazin-3-yl)-4-fluoro-phenyl]-amide hydrochloride], for which the IC50 turned out to be 97 nM. In the case of `NC1=N[C@@](c2cc(NC(=O)c3cnc(OCC(F)(F)F)cn3)ccc2F)(C(F)F)COC1` [Example 124, 5-(2,2,2-Trifluoro-ethoxy)-pyrazine-2-carboxylic acid [3-((R)-5-amino-3-difluoromethyl-3,6-dihydro-2H-[1,4]oxazin-3-yl)-4-fluoro-phenyl]-amide hydrochloride], the IC50 came out at 25 nM.

Regarding `NC1=N[C@@](c2cc(NC(=O)c3cc(Br)co3)ccc2F)(C(F)F)COC1` [Example 125, 4-Bromo-furan-2-carboxylic acid [3-((R)-5-amino-3-difluoromethyl-3,6-dihydro-2H-[1,4]oxazin-3-yl)-4-fluoro-phenyl]-amide hydrochloride], the IC50 came to 78 nM.

Take `NC1=N[C@@](c2cc(NC(=O)c3cc4ccccn4n3)ccc2F)(C(F)F)COC1` [Example 126, Pyrazolo[1,5-a]pyridine-2-carboxylic acid [3-((R)-5-amino-3 difluoromethyl-3,6-dihydro-2H [1,4]oxazin-3-yl)-4-fluoro-phenyl]-amide hydrochloride]: the IC50 came to 740 nM.

For `Cc1nc(C(=O)Nc2ccc(F)c([C@]3(C(F)F)COCC(N)=N3)c2)co1` [Example 127, 2-Methyl-oxazole-4-carboxylic acid [3-((R)-5-amino-3-difluoromethyl-3,6-dihydro-2H-[1,4]oxazin-3-yl)-4-fluoro-phenyl]-amide hydrochloride], the IC50 was determined as 98 nM.

Regarding `Cc1nc(C(=O)Nc2ccc(F)c([C@]3(C(F)F)COCC(N)=N3)c2)c(C)o1` [Example 128, 2,5-Dimethyl-oxazole-4-carboxylic acid [3-((R)-5-amino-3-difluoromethyl-3,6-dihydro-2H-[1,4]oxazin-3-yl)-4-fluoro-phenyl]-amide], the IC50 is 170 nM. In the case of `COc1cc(Br)cnc1C(=O)Nc1ccc(F)c([C@]2(C(F)F)COCC(N)=N2)c1` [Example 130, 5-Bromo-3-methoxy-pyridine-2-carboxylic acid [3-((R)-5-amino-3-difluoromethyl-3,6-dihydro-2H-[1,4]oxazin-3-yl)-4-fluoro-phenyl]-amide hydrochloride] it was 93 nM; in that of `CCc1nc(C(=O)Nc2ccc(F)c([C@]3(C(F)F)COCC(N)=N3)c2)co1` [Example 131, 2-Ethyl-oxazole-4-carboxylic acid [3-((R)-5-amino-3-difluoromethyl-3,6-dihydro-2H-[1,4]oxazin-3-yl)-4-fluoro-phenyl]-amide hydrochloride], 330 nM. For the molecule `NC1=N[C@@](c2cc(NC(=O)c3ccc(C(F)F)cn3)ccc2F)(C(F)F)COC1` [Example 132, 5-Difluoromethyl-pyridine-2-carboxylic acid [3-((R)-5-amino-3-difluoromethyl-3,6-dihydro-2H-[1,4]oxazin-3-yl)-4-fluoro-phenyl]-amide hydrochloride], the IC50 amounted to 87 nM. Consider `Cn1ccnc1C(=O)Nc1ccc(F)c([C@]2(C(F)F)COCC(N)=N2)c1` [Example 133, 1-Methyl-1H-imidazole-2 carboxylic acid [3-((R)-5-amino-3 difluoromethyl-3,6-dihydro-2H [1,4]oxazin-3-yl)-4-fluoro-phenyl]-amide hydrochloride], for which the IC50 is 1000 nM.

In the case of `NC1=N[C@@](c2cc(NC(=O)c3ccc(O)nn3)ccc2F)(C(F)F)COC1` [Example 134, 6-Hydroxy-pyridazine-3-carboxylic acid [3-((R)-5-amino-3-difluoromethyl-3,6-dihydro-2H-[1,4]oxazin-3-yl)-4-fluoro-phenyl]-amide hydrochloride], the IC50 worked out at 260 nM. Consider `COCCOc1cnc(C(=O)Nc2ccc(F)c([C@]3(C(F)F)COCC(N)=N3)c2)cn1` [Example 135, 5-(2-Methoxy-ethoxy)-pyrazine-2-carboxylic acid [3-((R)-5-amino-3-difluoromethyl-3,6-dihydro-2H-[1,4]oxazin-3-yl)-4-fluoro-phenyl]-amide hydrochloride], for which the IC50 amounted to 45 nM.
